Counter-ions that a name gives are not always drawn.
Assay: in vitro
Conditions: for CLint / T1/2: pooled liver microsomes 0.5 mg/mL protein, test compound 1 μM, NADPH 1 mM, 37° C., 0-45 min, LC-MS/MS; for microsomal CLint / half-life: pH 7.4; for differences in half-life and intrinsic clearance compared to 2-Br-LSD: human liver microsomes, significant = 15% or more increase in half-life, CLint ratio >1.15 or <0.85
Protocol: Test compound (1 μM) was incubated with pooled liver microsomes.
Pooled liver microsomes were purchased from a reputable commercial supplier. Microsomes were stored at −80° C. prior to use.
A minus cofactor control incubation was included for each compound tested where 0.1 M phosphate buffer pH 7.4 was added instead of NADPH (minus NADPH). Two control compounds were included with each species. All incubations were performed singularly for each test compound.
The reactions were stopped by transferring incubate into acetonitrile at the appropriate time points, in a 1:3 ratio. The termination plates were centrifuged at 3,000 rpm for 20 min at 4° C. to precipitate the protein.
Following protein precipitation, the sample supernatants were combined in cassettes of up to 4 compounds, internal standard was added and samples analyzed using generic LCMS/MS conditions.
From a plot of ln peak area ratio (compound peak area/internal standard peak area) against time, the gradient of the line was determined. Subsequently, half-life and intrinsic clearance were calculated using the equations below: […]
Relevant control compounds were assessed, ensuring intrinsic clearance values fell within the specified limits (if available). Any failures were rejected and the assay repeated. The intrinsic clearance (CLint) of the test compound and t ½ were returned.

| SMILES | CLint [μL/min/mg protein] | T1/2 [h] | microsomal CLint (human, microsomes) [µL/min/mg] | differences in half-life and intrinsic clearance compared to LSD (human, microsomes) | half-life (human, microsomes) [h] | differences in half-life and intrinsic clearance compared to 2-Br-LSD |
| --- | --- | --- | --- | --- | --- | --- |
| [2H]c1[nH]c2c([2H])c([2H])c([2H])c3c2c1C[C@@H]1C3=C[C@@H](C(=O)N(CC)CC)CN1C [Compound 45, (6aR,9R)-N,N-diethyl-7-methyl-4,6,6a,7,8,9-hexahydroindolo[4,3-fg]quinoline-9-carboxamide-1,2,3,5-d4 triflate-d] | 16.7 | 1.38 |  |  |  |  |
| CCN(CC)C(=O)[C@@H]1C=C2c3cccc4[nH]c(Br)c(c34)C[C@H]2N(C)C1 [Compound 2-Br-LSD, 2-Bromolysergic acid diethylamide, reference compound] | 56.3 | 0.41 |  |  |  |  |
| COc1ccc2c(c1)[C@]13CCCC[C@@H]1[C@H](C2)N(C)CC3 [dextromethorphan, reference compound] |  |  | 46.8 |  |  |  |
| [2H]C([2H])([2H])C([2H])([2H])N(C(=O)[C@@H]1C=C2c3cccc4[nH]cc(c34)C[C@H]2N(C)C1)C([2H])([2H])C([2H])([2H])[2H] [Compound 47, (6aR,9R)-N,N-Bis(ethyl-d5)-7-methyl-4,6,6a,7,8,9-hexahydroindolo[4,3-fg]quinoline-9-carboxamide] | 17.2 | 1.35 |  |  |  |  |
| [2H]c1[nH]c2c([2H])c([2H])c([2H])c3c2c1C[C@@H]1C3=C[C@@H](C(=O)N(C([2H])([2H])C([2H])([2H])[2H])C([2H])([2H])C([2H])([2H])[2H])CN1C [Compound 67, (6aR,9R)-N,N-Bis(ethyl-d5)-7-methyl-4,6,6a,7,8,9-hexahydroindolo[4,3-fg]quinoline-9-carboxamide-1,2,3,5-d4 triflate-d] |  |  | 11.5 | significant differences | 2 |  |
| [2H]C([2H])([2H])N1C[C@H](C(=O)N(CC)CC)C=C2c3cccc4[nH]c(Br)c(c34)C[C@H]21 [Compound 2, (6aR,9R)-5-bromo-N,N-diethyl-7-(methyl-d3)-4,6,6a,7,8,9-hexahydroindolo[4,3-fg]quinoline-9-carboxamide] | 49.4 | 0.468 |  |  |  | differences |
| [2H]C([2H])([2H])N1C[C@H](C(=O)N(C([2H])([2H])C([2H])([2H])[2H])C([2H])([2H])C([2H])([2H])[2H])C=C2c3cccc4[nH]cc(c34)C[C@H]21 [Compound 50, (6aR,9R)-N,N-bis(ethyl-d5)-7-(methyl-d3)-4,6,6a,7,8,9-hexahydroindolo[4,3-fg]quinoline-9-carboxamide trifluoroacetate-d] |  |  | 14.3 |  | 1.61 |  |
| [2H]c1[nH]c2cccc3c2c1C[C@@H]1C3=C[C@@H](C(=O)N(CC)CC)CN1C [Compound 41, (6aR,9R)-N,N-diethyl-7-methyl-4,6,6a,7,8,9-hexahydroindolo[4,3-fg]quinoline-9-carboxamide-4,5-d trifluoroacetate-d] | 17.8 | 1.3 |  |  |  |  |
| [2H]C([2H])([2H])N1C[C@H](C(=O)N(C([2H])([2H])C([2H])([2H])[2H])C([2H])([2H])C([2H])([2H])[2H])C=C2c3cccc4[nH]c(Br)c(c34)C[C@H]21 [Compound 9, (6aR,9R)-5-bromo-N,N-bis(ethyl-d5)-7-(methyl-d3)-4,6,6a,7,8,9-hexahydroindolo[4,3-fg]quinoline-9-carboxamide trifluoroacetate-d] | 38.8 | 0.595 |  |  |  |  |
| [2H]C([2H])([2H])C([2H])([2H])N(C(=O)[C@@H]1C=C2c3cccc4[nH]c(Br)c(c34)C[C@H]2N(C)C1)C([2H])([2H])C([2H])([2H])[2H] [Compound 7, (6aR,9R)-5-bromo-N,N-bis(ethyl-d5)-7-methyl-4,6,6a,7,8,9-hexahydroindolo[4,3-fg]quinoline-9-carboxamide] | 44.6 | 0.518 |  |  |  |  |
| [2H]c1[nH]c2cccc3c2c1C[C@@H]1C3=C[C@@H](C(=O)N(C([2H])([2H])C([2H])([2H])[2H])C([2H])([2H])C([2H])([2H])[2H])CN1C [Compound 55, (6aR,9R)-N,N-Bis(ethyl-d5)-7-methyl-4,6,6a,7,8,9-hexahydroindolo[4,3-fg]quinoline-9-carboxamide-5-d trifluoroacetate-d] |  |  | 16.6 |  | 1.39 |  |
| CCN(CC)C(=O)[C@@H]1C=C2c3cccc4[nH]cc(c34)C[C@H]2N(C)C1 [LSD, Lysergic acid diethylamide, reference compound] |  |  | 16.3 |  | 1.42 |  |
| [2H]c1c([2H])c2c3c(c(Br)[nH]c3c1[2H])C[C@@H]1C2=C[C@@H](C(=O)N(CC)CC)CN1C [Compound 1, (6aR,9R)-5-Bromo-N,N-diethyl-7-methyl-4,6,6a,7,8,9-hexahydroindolo[4,3-fg]quinoline-9-carboxamide-1,2,3-d3 formate] | 52.6 | 0.438 |  |  |  | differences |
